Source: patent US20260284240A1, “RADIOLABELED COMPOUND FOR USE IN A METHOD OF TREATING CARBONIC ANHYDRASE IX POSITIVE DISEASES” (DEBIOPHARM INTERNATIONAL S.A., priority 2023, published 2026)
Like-named read-outs stand apart in the source and are kept apart here. Starred links: 1 amine or outer side, 2 acyl side, 3 side chain; linkers in the order of their positions; H or OH if unused. Positions of bridges follow the written chain, without caps; N, C: chain ends. Non-standard residues stand in square brackets, D forms with d. Residues, ends and D or L forms follow the SMILES beside them. *: point of attachment. Phe(3-NHCO(CH2)3SO2NH2) = N[C@@H](Cc1cccc(NC(=O)CCCS(N)(=O)=O)c1)C(=O)O; DOTA = O=C(O)CN1CCN(CC(=O)O)CCN(CC(=O)*)CCN(CC(=O)O)CC1; mXylylene = c1cc(C[*:1])cc(C[*:2])c1; X1 = O=C(CN1CCN([*:1])CC1)[*:2]

Legend:
[1] = Allometric prediction of human PK parameters from mouse and dog PK; settings: allometry from mouse and dog
Protocol: From the variety of CL, Vd and T1/2 determined in the animal studies, the highest and lowest values for each species were retained, and allometry was conducted on all the combinations to obtain a range for each predicted human PK parameter.

[2] = Pharmacokinetics after single i.v. dose in healthy male CD-1 mice; format: in vivo; settings: urine, iv, mouse, read-out: Injected dose retrieved from urine unchanged over 8 hours
Protocol: (§1) The pharmacokinetics of DPI-4452 after a single intravenous (i.v.) dose were investigated in healthy mice. […] Plasma and urine samples collected after dosing were analyzed using a LC-HRMS (liquid chromatography coupled with high-resolution mass spectrometry) assay method. Concentration values were used for pharmacokinetic calculations.
Male CD-1 mice (3 animals per time point and per dose level; overall, 28.2-37.6 g body weight) were administered intravenously in the tail vein in a 2 mL/kg dosing volume. Blood samples were collected in K2EDTA tubes at 5 min, 15 min, 30 min, 1 h, 2 h, 4 h, 8 h, and urine was collected over 8 hours post dose. […]
Plasma and urine samples were analyzed by LC-HRMS after solid phase extraction, using a stable isotope-labeled internal standard (^13C6, ^15N-DPI-4452). […] The lower limit of quantification was 1.00 ng/mL in plasma and urine.
The non-compartmental (NCA) pharmacokinetic analysis of plasma concentration data was conducted using Phoenix 64 WinNonlin (Build 8.3.3.33) software. […] The terminal phase half-life (T1/2) was calculated by least-squares regression analysis of the terminal linear part of the log concentration-time curve. The area under the plasma concentration-time curve (AUC) was determined with the linear trapezoidal rule for increasing values and log trapezoidal rule for decreasing values up to the last measurable concentration.

[3] = Toxicokinetics in the extended single-dose toxicity study in dogs; format: in vivo, dog; settings: for concentration at 5 min: plasma, iv, read-out: C5 min; for concentration at 5 min / AUClast / CL / Vss: mean n = 3; for t1/2: harmonic mean
Protocol: The following parameters and endpoints were evaluated: mortality, clinical observations, body weights, food consumption, body temperature, local reactions, ophthalmology, clinical pathology parameters (hematology, coagulation, clinical chemistry, and urinalysis), cardiovascular and respiratory safety pharmacology endpoints along with FOB evaluation, organ weights, and macroscopic and microscopic examinations, and TK parameters. The animals from subset A (3 males and 3 females per group) were sampled for toxicokinetics (TK) at: pre-dose, 5 min, 15 min, 30 min, 1 h, 2 h, 3 h and 6 h. Blood samples were collected in K2EDTA tubes. Plasma was prepared by centrifugation (2500 g for 10 minutes, +4° C.) within 1 hour after collection, and then frozen within 1 hour after centrifugation and stored at −80° C. […] Chromatographic separation was achieved using a Waters Acquity UPLC system with a Waters Acquity HSS T3 C18 2.1×50 mm, 1.8 μm column. Chromatography was conducted at 50° C. at a flow rate of 0.7 mL/min using a mobile phase consisting of A: 1% formic acid in acetonitrile, and B: 1% formic acid in water, according to the following linear gradient: 0 to 0.1 min: 90% B; 0.1 to 4.1 min: from 90% B to 74% B; 4.1 to 4.2 min: from 74% B to 5% B; 4.2 to 4.6 min: 5% B; 4.6 to 4.7 min: from 5% B to 90% B; 4.7-5.1 min; 90% B. Detection was performed using a Sciex AP16600 TOF mass spectrometer. Toxicokinetic parameters were estimated from concentration-time data using Phoenix pharmacokinetic software (version 6.4, Certara L.P.). A non-compartmental approach consistent with the bolus intravenous injection was used for parameter estimation.

[4] = Pharmacokinetics after single i.v. dose in healthy male beagle dogs; format: in vivo; settings: dog; for concentration at 24 h / dose excreted at 24 h: iv; for concentration at 24 h: 24 h urine, read-out: Mean amount of unchanged compound excreted in urine; for dose excreted at 24 h: urine, read-out: Dose excreted unchanged in urine
Protocol: as §1, with “dose was” for “dose were”, “healthy dogs.” for “healthy mice.”
DPI 4452 was formulated in 0.1 M HEPES pH 7.0 at the final concentrations of 0.05 and 0.4 mg/mL for dosing at 0.1 and 0.8 mg/kg, respectively. Male beagle dogs (3 animals per dose level; overall 8.9 to 12.4 kg body weight) were administered intravenously (bolus) in a 2 mL/kg dosing volume. Blood samples were collected in K2EDTA tubes at 5 min, 15 min, 30 min, 1 h, 2 h, 4 h, 6 h, 24 h, and urine was collected over 24 hours post dose. The blood samples were kept on wet ice until plasma separation by centrifugation within 60 min after sampling. The plasma samples were transferred into plastic tubes, frozen and stored at −80° C. until analysis.
Plasma and urine samples were analyzed by LC-HRMS after solid phase extraction, using DPI-4501 as internal standard. Chromatographic separation was run on a Waters Acquity HSS T3 C18 2.1×50 mm, 1.8 μm column. Detection was achieved on a Sciex AP16600 TOF mass spectrometer. The lower limit of quantification was 2.00 ng/mL in urine and plasma.
The NCA pharmacokinetic analysis of plasma concentration data was conducted using Phoenix WinNonlin 6.3 software. Nominal doses were used for all animals. The terminal phase half-life (T1/2) was calculated by least-squares regression analysis of the terminal linear part of the log concentration-time curve. The area under the plasma concentration-time curve (AUC) was determined with the linear trapezoidal rule for increasing values and log trapezoidal rule for decreasing values up to the last measurable concentration.

[5] = female beagle dogs, single i.v. bolus 16 μg/kg
[6] = female beagle dogs, single i.v. bolus 80 μg/kg
[7] = female beagle dogs, single i.v. bolus 400 μg/kg
[8] = male beagle dogs, single i.v. bolus 16 μg/kg
[9] = male beagle dogs, single i.v. bolus 80 μg/kg
[10] = male beagle dogs, single i.v. bolus 400 μg/kg

CC(C)C[C@@H]1NC(=O)[C@H](Cc2cccc(NC(=O)CCCS(N)(=O)=O)c2)NC(=O)[C@H](CC(=O)O)NC(=O)[C@H]2CCCN2C(=O)[C@H](CCC(=O)O)NC(=O)[C@@H](NC(=O)[C@H](CCC(N)=O)NC(=O)CN2CCN(C(=O)CN3CCN(CC(=O)O)CCN(CC(=O)O)CCN(CC(=O)O)CC3)CC2)CSCc2cccc(c2)CSC[C@@H](C(N)=O)NC(=O)[C@H](CO)NC(=O)[C@H](Cc2c[nH]c3ccccc23)NC(=O)[C@H]([C@@H](C)O)NC1=O [DPI-4452, DOTA-PPAc-Gln-[Cys(3MeBn)-Glu-pro-Asp-Af3(Cpsu)-Leu-Thr-Trp-Ser-Cys]-NH2] ({DOTA}-[X1]QCE[dP]D[Phe(3-NHCO(CH2)3SO2NH2)]LTWSC-NH2; linker 3-12 via mXylylene)
Predicted human clearance (CL) [1]: 3.57 to 13.0 mL/min/kg | Predicted human terminal half-life (T1/2) [1]: 10.2 to 88.2 min | Predicted human volume of distribution (Vd) [1]: 0.189 to 0.455 L/kg | dose excreted at 8 h ([2]; i.v. 0.7 mg/kg): 3.57% | dose excreted at 8 h ([2]; i.v. 5.5 mg/kg): 8.89% | Exposure difference between male and female dogs ([3]; all dose levels): No appreciable difference | Mean AUCtlast at the NOAEL, females ([3]; dog, 400 μg/kg i.v.): 771 ng·h/mL | Mean AUCtlast at the NOAEL, males ([3]; dog, 400 μg/kg i.v.): 854 ng·h/mL | concentration at 5 min ([3]; dog, 0.08 mg/kg, female beagle dogs, single i.v. bolus 80 μg/kg): 346 ng/mL | concentration at 5 min ([3]; dog, 0.08 mg/kg, male beagle dogs, single i.v. bolus 80 μg/kg): 332 ng/mL | concentration at 5 min ([3]; dog, 0.4 mg/kg, female beagle dogs, single i.v. bolus 400 μg/kg): 1760 ng/mL | concentration at 5 min ([3]; dog, 0.4 mg/kg, male beagle dogs, single i.v. bolus 400 μg/kg): 1840 ng/mL | concentration at 5 min ([3]; dog, […], female beagle dogs, single i.v. bolus 16 μg/kg): 37.7 ng/mL | concentration at 5 min ([3]; dog, […], male beagle dogs, single i.v. bolus 16 μg/kg): 43.5 ng/mL | t1/2 [3, 5]: 14.3 min | AUClast [3, 5]: 12.4 ng·h/mL | CL [3, 5]: 21.2 mL/min/kg | Vss [3, 5]: 0.30 L/kg | t1/2 [3, 6]: 23.2 min | AUClast [3, 6]: 144 ng·h/mL | CL [3, 6]: 9.27 mL/min/kg | Vss [3, 6]: 0.21 L/kg | t1/2 [3, 7]: 21.8 min | CL [3, 7]: 8.63 mL/min/kg | Vss [3, 7]: 0.19 L/kg | t1/2 [3, 8]: 15.5 min | AUClast [3, 8]: 14.0 ng·h/mL | CL [3, 8]: 18.3 mL/min/kg | Vss [3, 8]: 0.26 L/kg | t1/2 [3, 9]: 21.7 min | AUClast [3, 9]: 132 ng·h/mL | CL [3, 9]: 10.1 mL/min/kg | Vss [3, 9]: 0.21 L/kg | t1/2 [3, 10]: 23.7 min | CL [3, 10]: 7.88 mL/min/kg | Vss [3, 10]: 0.19 L/kg | Time up to which plasma concentration was quantifiable ([4]; i.v. 0.1 mg/kg): up to 2 h | Time up to which plasma concentration was quantifiable ([4]; i.v. 0.8 mg/kg): ≤ 4 h | concentration at 24 h ([4]; i.v. 0.1 mg/kg): 26.8 ng/mL | concentration at 24 h ([4]; i.v. 0.8 mg/kg): 191 ng/mL | dose excreted at 24 h ([4]; i.v. 0.1 mg/kg): 0.29% | dose excreted at 24 h ([4]; i.v. 0.8 mg/kg): 0.14%
